Tests used:
p27 in ECC-1 cells = assay: Cycloheximide p27 half-life in ECC-1 cells; type: cell-based, human; conditions: 18 h treatment, 20 μM CHX chase, control 3.2 h
Method: The endometrial carcinoma cell line (derived from a well-differentiated endometrioid Type I ECA) ECC-1 cells (ATCC, Manassas, Va.) were plated at a density of 3×10^5/well/6-well plate and grown in DMEM:F12 supplemented with 10% FBS (BioWest, Ocala, Fla.). The cell line was passaged in the laboratory for fewer than 6 months after receipt. […] The protocol was approved by The Institutional Review Board of NYU, informed consent was obtained, and the samples were identified and graded by two surgical pathologists and graded according to the WHO (I-III) for decreased glandular structure and nuclear atypia (Silverberg, “Hyperplasia and Carcinoma of the Endometrium,” Semin. Diagn. Pathol. 5:135-153 (1988), which is hereby incorporated by reference in its entirety). ECAs were plated at a density of 2.2×10^6 cells/6-well Primaria® plates (BD Biosciences, San Jose, Calif.) in McCoys 5A media without phenol red containing 10% charcoal-stripped FBS, 2 mM L-Glutamine (Invitrogen) and antimycotic antibiotic solution (Mediatech, Hendon, Va.). ECC-1 cells and primary ECA cells were grown to 70-80% confluence, synchronized in serum-free media for 24 h, treated with 10 […] Skp2E3LIs for 18 h or as indicated in the figures. […] Whole cell lysates were collected at increasing time points (0, 2, 4, 6 h) and 20 μg protein/well analyzed for p27 by immunoblotting.

ECC-1 cells [1] = assay: ECC-1 cell proliferation (MTS assay); type: cell-based, human; conditions: for Inhibition of cellular proliferation over the Vehicle control: 10 μM (FIG. 13A); for Blocking E2-induced proliferation: compound plus E2 (FIG. 14D)
Q52L-Cks1 mutant = target: T1, Q52L-Cks1 mutant (Homo sapiens, UniProt P61024+Q13309, Q52L); assay: In vitro ubiquitylation assay with Q52L-Cks1 mutant; type: biochemical; conditions: 50 μM compound
T1 construct: made in house; host or cells: cell-free: rabbit reticulocyte lysate (TNT T7 Coupled Reticulocyte Lysate System, Promega) from pcDNA3.1 plasmids
Text: To interrogate the compound-contacting residues on the Skp2-Cks1 interface, mutants of Skp2 and Cks1 were designed based on the in silico dockings. The predicted electrostatic interactions between the positive charge on the NH2 side group in Q52-Cks1 with the COOH-group in C1 and C16 should be lost when mutated to a neutral-charge leucine (FIG. 7B). […] This confirms that the Q52-Cks1 residue is important for only C1 and C16 activity, as predicted by the in silico dockings. […] The Skp2-R294A and the Cks1-R44A/H mutants lacked ubiquitylation activity (FIG. 7C) preventing the interrogation of these residues' contribution to the activity of C2 and C20. […] Thus, the predicted three-dimensional mode of interaction of the compounds with Skp2-Cks1 was validated at a chemical and protein level.
In vitro reconstituted assays were performed as previously described (Dorrello et al., “S6K1- and betaTRCP-mediated Degradation of PDCD4 Promotes Protein Translation and Cell Growth,” Science 314:467-471 (2006), which is hereby incorporated by reference in their entirety) with the exceptions of the use of (1) unlabeled proteins (wild-type and mutant Skp2 and Cks1, p27, Flag-βTrCP, and HA-PDCD4) generated by in vitro transcription-translation (TNT T7 Coupled Reticulocyte Lysate System, Promega); (2) chain elongation with non-methylated ubiquitin; and (3) immunoblotting to detect poly-ubiquitylation. The following reagents were obtained from Boston Biochem: UBE1, His-UbcH3, His-UbcH5c, Ubiquitin, and Ubiquitin Aldehyde. Additional reagents include CDK2/CyclinE1 (Sigma-Aldrich), S6K (Invitrogen), Okadaic acid (Sigma), and DMSO (Sigma-Aldrich). For ubiquitin charging, UBE1 (100 nM) and His-UbcH3 (10 ng/μl) were incubated with ubiquitin (2.5 μg/μl), ATP (2 mM), and 10 μM […] of inhibitors or Vehicle control for 60 min at 30° C. Reactions were stopped in nondenaturing 2× Sample Buffer, with the addition of 10% Beta-mercaptoethanol as indicated, and analyzed by Western blotting.

MDM2 = target: T2, MDM2 (Homo sapiens, UniProt Q00987); assay: MDM2 p53 in vitro ubiquitylation counter-screen; type: biochemical; conditions: 50 μM inhibitor
T2 construct: purchased Boston Biochem
Method: p53 ubiquitylation was carried out with the p53 Ubiquitylation Kit (Boston Biochem) following manufacturers protocol. Immunoblotting was performed using mouse monoclonal p53 (Santa Cruz) and rabbit polyclonal MDM2 (Santa Cruz).

ECC-1 cells [2] = assay: ECC-1 cell proliferation (MTS assay); type: cell-based, human; conditions: for Increase in nuclear p27 and inhibition of cell proliferation following Skp2 knock-down: ECC-1, Skp2 siRNA, knock-down by 85%; for Inhibition of cell proliferation: ECC-1 transfected with control siRNA (FIG. 14B)
Method: ECC-1 cells in complete media were seeded at 1.2×10^5/well in 12-well plates and after 24 h the cells were transfected with either control siRNA or 10 nM Skp2 siRNA using HiPerfect transfection reagent (Qiagen; Valencia, Calif.) and siRNA to three different sites including a pool of siRNAs as shown in the experiment, as previously described (Huang et al., “Estrogen and Progesterone Regulate p27kip1 Levels via the Ubiquitin-Proteasome System: Pathogenic and Therapeutic Implications for Endometrial Cancer,” PLoS One 7:e46072 (2012), which is hereby incorporated by reference in its entirety). […] To determine the effect of C2 and C20 on cell proliferation after knock-down of Skp2, the cells were seeded in 96-well plates at a density of 1×10^4 in complete media, transfected, synchronized, treated with C2 and C20, and cell proliferation determined, as described above.

p27 in primary ECA cells = assay: p27 immunoblot in primary endometrial carcinoma (ECA) cells; conditions: 10 μM for 18 h; for Increase of p27 levels over the Vehicle-treated control: grade I, total cell lysates; for Decrease of p27 in the cytoplasm / Increase of nuclear p27: grade II type I
Method: The endometrial carcinoma cell line (derived from a well-differentiated endometrioid Type I ECA) ECC-1 cells (ATCC, Manassas, Va.) were plated at a density of 3×10^5/well/6-well plate and grown in DMEM:F12 supplemented with 10% FBS (BioWest, Ocala, Fla.). The cell line was passaged in the laboratory for fewer than 6 months after receipt. […] ECAs were plated at a density of 2.2×10^6 cells/6-well Primaria® plates (BD Biosciences, San Jose, Calif.) in McCoys 5A media without phenol red containing 10% charcoal-stripped FBS, 2 mM L-Glutamine (Invitrogen) and antimycotic antibiotic solution (Mediatech, Hendon, Va.).
For subcellular fractionation, following treatments, cells were separated into nuclear and cytoplasmic fractions using the NE-PER kit (Thermo Scientific), and 10 μg cytoplasmic and nuclear protein fractions were loaded onto SDS-PAGE for immunoblotting. […] The membranes were incubated with peroxidase-conjugated goat anti-rabbit or goat anti-mouse secondary antibodies in TBST (1:2000; Thermo Scientific). […] Protein bands were resolved using the SuperSignal West Dura kit (Thermo Scientific), visualized by exposure to X-ray film (HyBlot; Denville Scientific, Denville, N.J.), and following densitometric scanning (Kodak Logic-100), the protein bands were quantified by normalizing to β-actin and compared to the untreated control, and the values represented by the graphs of relative protein levels compared to actin in each well and shown as % of Vehicle control.

JeKo-1 = assay: Cell viability, JeKo-1 mantle cell lymphoma; type: cell-based, human; conditions: 24 hours, CalcuSyn
Method: Viable and metabolically active cells were assayed using CellTiter-Blue (Promega) or PrestoBlue (Invitrogen) following manufacturer's instruction. In a 96 well plate format, 15×10^3 cells were pretreated with 0.1% Vehicle or increasing concentration of inhibitors as noted (for 16 h, 24 h, 48 h, and/or 72 hr) and fluorescence was detected on the SpectraMax M2e (Molecular Devices) after 30 min incubation with dye.

T2 sequence (Q00987 whole entry, species assumed): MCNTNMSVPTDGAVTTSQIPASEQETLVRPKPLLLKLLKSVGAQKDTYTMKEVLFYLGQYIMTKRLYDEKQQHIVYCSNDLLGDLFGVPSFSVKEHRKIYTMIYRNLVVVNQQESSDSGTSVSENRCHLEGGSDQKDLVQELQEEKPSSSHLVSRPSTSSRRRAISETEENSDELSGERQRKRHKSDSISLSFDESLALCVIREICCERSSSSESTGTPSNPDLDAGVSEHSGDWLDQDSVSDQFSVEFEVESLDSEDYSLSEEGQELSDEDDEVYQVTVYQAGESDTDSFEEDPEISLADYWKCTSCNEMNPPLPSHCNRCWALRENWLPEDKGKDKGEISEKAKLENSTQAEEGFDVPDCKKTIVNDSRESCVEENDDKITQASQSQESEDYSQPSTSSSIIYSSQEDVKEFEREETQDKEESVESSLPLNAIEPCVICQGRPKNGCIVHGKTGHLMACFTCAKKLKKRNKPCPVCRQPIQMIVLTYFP
T1 sequence (Q13309 whole entry): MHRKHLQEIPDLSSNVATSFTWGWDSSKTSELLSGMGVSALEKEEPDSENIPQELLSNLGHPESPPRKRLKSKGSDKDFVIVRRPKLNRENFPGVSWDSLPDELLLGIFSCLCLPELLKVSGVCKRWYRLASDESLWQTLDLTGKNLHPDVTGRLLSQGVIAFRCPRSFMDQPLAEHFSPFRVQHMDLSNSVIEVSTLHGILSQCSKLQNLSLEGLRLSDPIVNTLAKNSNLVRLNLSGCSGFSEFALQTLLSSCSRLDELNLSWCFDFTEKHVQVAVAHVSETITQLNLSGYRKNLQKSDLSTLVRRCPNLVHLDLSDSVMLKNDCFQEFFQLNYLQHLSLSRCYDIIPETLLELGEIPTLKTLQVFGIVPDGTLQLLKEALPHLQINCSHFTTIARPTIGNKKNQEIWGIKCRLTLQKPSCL
T1 sequence (P61024 whole entry Q52L): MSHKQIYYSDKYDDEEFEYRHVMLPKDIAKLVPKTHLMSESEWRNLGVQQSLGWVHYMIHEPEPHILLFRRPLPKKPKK
T1 sequence (P63208 whole entry partner): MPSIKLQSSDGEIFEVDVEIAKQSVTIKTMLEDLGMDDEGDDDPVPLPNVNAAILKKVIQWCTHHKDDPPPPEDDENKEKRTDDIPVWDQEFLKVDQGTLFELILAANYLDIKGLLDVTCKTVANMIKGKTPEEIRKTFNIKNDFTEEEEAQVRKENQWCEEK
T1 sequence (Q13616 whole entry partner): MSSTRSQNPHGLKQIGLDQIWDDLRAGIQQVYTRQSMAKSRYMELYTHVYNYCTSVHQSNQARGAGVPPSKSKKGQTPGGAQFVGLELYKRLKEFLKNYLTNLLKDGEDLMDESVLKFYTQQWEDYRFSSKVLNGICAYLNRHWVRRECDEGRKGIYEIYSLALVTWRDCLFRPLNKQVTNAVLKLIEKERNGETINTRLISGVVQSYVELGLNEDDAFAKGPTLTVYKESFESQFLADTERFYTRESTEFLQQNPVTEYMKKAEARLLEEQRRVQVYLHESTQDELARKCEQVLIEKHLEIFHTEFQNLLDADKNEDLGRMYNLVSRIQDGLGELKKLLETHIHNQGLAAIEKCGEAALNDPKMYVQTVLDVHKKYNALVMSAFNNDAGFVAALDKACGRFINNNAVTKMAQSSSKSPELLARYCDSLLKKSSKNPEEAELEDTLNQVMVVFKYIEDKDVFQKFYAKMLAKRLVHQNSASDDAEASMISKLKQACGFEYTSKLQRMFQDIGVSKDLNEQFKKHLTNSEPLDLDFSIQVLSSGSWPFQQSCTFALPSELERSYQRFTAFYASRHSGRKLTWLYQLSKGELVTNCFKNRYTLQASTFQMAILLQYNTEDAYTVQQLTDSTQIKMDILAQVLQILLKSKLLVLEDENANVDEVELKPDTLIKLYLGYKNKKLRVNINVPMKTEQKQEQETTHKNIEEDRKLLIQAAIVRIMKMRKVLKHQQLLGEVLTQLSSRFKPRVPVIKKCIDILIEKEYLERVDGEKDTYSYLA
T1 sequence (P62877 whole entry partner): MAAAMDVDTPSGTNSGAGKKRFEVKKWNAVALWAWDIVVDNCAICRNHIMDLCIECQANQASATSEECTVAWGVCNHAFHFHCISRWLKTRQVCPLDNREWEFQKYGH

| Compound | Extension of p27 half-life over cycloheximide (CHX) control (p27 in ECC-1 cells) [h] | Inhibition of cellular proliferation over the Vehicle control (ECC-1 cells [1]) [%] | Blocking E2-induced proliferation (ECC-1 cells [1]) | Inhibition of p27 ubiquitylation with Q52L-Cks1 (Q52L-Cks1 mutant) | MDM2 activity (p53 poly-ubiquitylation) (MDM2) | Increase in nuclear p27 and inhibition of cell proliferation following Skp2 knock-down (ECC-1 cells [2]) | Inhibition of cell proliferation (ECC-1 cells [2]) [%] | Increase of p27 levels over the Vehicle-treated control (p27 in primary ECA cells) [fold] | Decrease of p27 in the cytoplasm (p27 in primary ECA cells) | Increase of nuclear p27 (p27 in primary ECA cells) [%] | IC50 (JeKo-1) [µM] | EC50 (ECC-1 cells [1]; Hillslope method, read-out: EC50 inhibiting proliferation) [µM] |
| --- | --- | --- | --- | --- | --- | --- | --- | --- | --- | --- | --- | --- |
| O=C(NN=Cc1cc(Br)cc(Br)c1O)C(=Cc1ccccc1O)NC(=O)c1ccccc1 [Compound C20] | 2.7 | 30 | equal to the effect of blocking ER activation with ICI 182,780 | strongly inhibited | not blocked | completely abrogated | 27 | 3 | approximately 25% | 46 |  |  |
| COC(=O)C1=C(C)N(c2ccc(Br)cc2)C(=O)C1=Cc1ccccc1O [Compound C2] | 6.1 | 33 | equal to the effect of blocking ER activation with ICI 182,780 | strongly inhibited | not blocked | completely abrogated | 29 | 1.9 | approximately 25% | 67 | 9.3 | 14.3 |
| O=C(O)COc1ccc(Br)cc1C=C1SC(=S)N(Cc2cccnc2)C1=O [Compound C1] |  |  |  | inactive | not blocked |  |  |  |  |  | 4.8 |  |
| O=C(O)COc1ccc(C=C2SC(=O)N(CC(=O)c3ccc(Cl)cc3)C2=O)cc1 [Compound C16] |  |  |  | inactive | not blocked |  |  |  |  |  |  |  |

From US9261497B2, “Method of treating cancer with modulators of SCFSkp2” (New York University, priority 2012, dated 2016)
